Experimental data: US20150183737A1, “COMPOSITIONS AND METHODS FOR SUBSTRATE-SELECTIVE INHIBITION OF ENDOCANNABINOID OXYGENATION” (Vanderbilt University, priority 2012, published 2015)
Read-outs that look alike come from different tables or passages of the source. Blank lines part the entries; values can stand above or below the compound they belong to.

Legend:
[1] = target: T1, purified murine COX-2 (Mus musculus, UniProt Q05769); assay: Inhibition of mCOX-2-dependent oxygenation of 2-AG and AA by lumiracoxib and derivatives in vitro; type: biochemical; set-up: made in house; host or cells: insect cells; dose or concentration left out as unconfirmed
T1 sequence (Q05769 18-604): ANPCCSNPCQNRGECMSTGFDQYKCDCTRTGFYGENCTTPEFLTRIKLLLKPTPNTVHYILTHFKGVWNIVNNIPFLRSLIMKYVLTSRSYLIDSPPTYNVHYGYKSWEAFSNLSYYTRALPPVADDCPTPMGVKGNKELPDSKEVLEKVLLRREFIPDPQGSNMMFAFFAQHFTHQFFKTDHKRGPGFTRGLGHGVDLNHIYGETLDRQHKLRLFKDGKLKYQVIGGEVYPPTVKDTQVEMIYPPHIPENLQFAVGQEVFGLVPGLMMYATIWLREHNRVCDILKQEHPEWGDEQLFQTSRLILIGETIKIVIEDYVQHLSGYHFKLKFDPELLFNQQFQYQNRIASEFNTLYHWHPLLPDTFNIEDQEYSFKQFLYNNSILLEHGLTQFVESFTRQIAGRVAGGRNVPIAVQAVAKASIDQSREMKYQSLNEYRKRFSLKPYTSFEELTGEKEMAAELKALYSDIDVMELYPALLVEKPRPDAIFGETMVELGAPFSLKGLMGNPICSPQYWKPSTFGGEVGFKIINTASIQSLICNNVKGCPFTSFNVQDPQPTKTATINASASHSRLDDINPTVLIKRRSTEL

[2] = target: T1, purified murine COX-2; assay: Inhibition of mCOX-2 dependent oxygenation of 2-AG and AA by profens in vitro; type: biochemical; set-up: made in house; host or cells: insect cells
Experimental: Desired concentrations of inhibitor in DMSO or blank (DMSO) were incubated with mCOX-2 (40 nM) for 3 minutes in 100 mM Tris-HCl with 0.5 mM phenol, pH 8.0 at 37° C. After pre-incubation of enzyme and inhibitor, 5 μM of AA or 2-AG was added at 37° C. Thirty seconds later, the reaction was quenched with 200 μL of ice-cold ethyl acetate containing 0.5% acetic acid (v/v) and 1 μM PGE2-d4 and PGE2-G-d5. The solution was then vortexed and the aqueous layer frozen. The organic layer was removed and evaporated to near-dryness under nitrogen. The samples were reconstituted in 1:1 MeOH:H2O and chromatographed using a LUNA® C18(2) column (50 2 mm, 3 μm; Phenomenex, Torrance, Calif., United States of America). […] Analyte peak areas were normalized to the appropriate internal standard to determine the amount of product formation, and inhibition was determined by normalization to a DMSO control.

[3] = system: brain eCB, AA and PG levels; assay: Brain eCB, NAE, MAG, AA and PG levels after i.p. injection; type: in vivo, mice; settings: 40 mg/kg
Experimental: 5-7 week old male ICR mice were used for all experiments with the exception of knockout animals (Harlan, Indianapolis, Ind., United States of America). Mice were housed 5 per […]. All behavioral tests were conducted during the light cycle between 0900 and 1700. KO and WT littermate controls for FAAH^(−/−) and COX-2^(−/−) mice were derived from heterozygote breeding pairs, bred and genotyped as described in Uddin et al., 2011. CB1^(−/−) mice were bred from homozygote breeding pairs and genotyped as described in Pan et al., 2008. Mice were group-housed on a 12:12 light-dark cycle (lights on at 06:00), with food and water available ad libitum. All animal studies were approved by the Vanderbilt Institutional Animal Care and Use Committee and conducted in accordance with the Guide for the Care and Use of Laboratory Animals of the United States National Institutes of Health.
Mice were sacrificed by cervical dislocation and decapitation. The brain, lungs, liver, stomach, small intestines, and kidneys were then rapidly removed and frozen on a metal block in dry ice. The tissue was then placed in a tube and stored at −80° C. until extraction, usually one day after harvesting. For PG and eCB analysis, lipid extraction from tissue was carried out as described in Patel et al., 2009.
Analytes were quantified using LC-MS/MS on a Quantum triple-quadrupole mass spectrometer in positive-ion mode using selected reaction monitoring. Detection of eicosanoids was performed as described in Kingsley & Marnett, 2007. For fatty acid analysis the mobile phases used were 80 μM AgOAc with 0.1% (v/v) acetic acid in H2O (solvent A) and 120 μM AgOAc with 0.1% (v/v) acetic acid in MeOH (solvent B). The analytes were eluted using a gradient from 20% A to 99% B over 5 minutes. The transitions used were m/z 300→282 for PEA, m/z 328→310 for SEA, m/z 434→416 for OEA, m/z 456→438 for AEA, m/z 464→446 for AEA-d8, m/z 331→257 for 2-PG, m/z 359→285 for 2-SG, m/z 463→389 for 2-OG, m/z 485→411 for 2-AG, m/z 493→419 for 2-AG-d8, m/z 519→409 for AA, and m/z 527→417 for AA-d8. Peak areas for the analytes were normalized to the appropriate internal standard and then normalized to tissue mass for in vivo samples.

[4] = 15 min incubation, read-out: Maximum inhibition of AA oxygenation (converted)
[5] = inhibitor incubated with enzyme for 15 min before addition of substrate, read-out: AA IC50
[6] = 0.5 min, achiral profens, murine COX-2 40 nM, 3 min preincubation, 2-AG 5 μM, 37° C., 30 s, mean ± SD, read-out: 2-AG IC50
[7] = achiral profens, at 10 μM inhibitor, AA 5 μM, read-out: AA % Inhibition
[8] = read-out: Maximum inhibition of 2-AG oxygenation, achiral profens, at 10 μM inhibitor, 2-AG 5 μM
[9] = achiral profens, murine COX-2 40 nM, 3 min preincubation, 2-AG 5 μM, 37° C., 30 s, mean ± SD, read-out: 2-AG IC50
[10] = chiral profens, murine COX-2 40 nM, 3 min preincubation, 2-AG 5 μM, mean ± SD, read-out: IC50 (μM) 2-AG
[11] = chiral profens, at 10 μM inhibitor, AA 5 μM, read-out: % Inhibition AA

inhibition at 10 µM [2, 7]: 10% | IC50 [2, 9]: 4.1 µM | inhibition at 10 µM [2, 8]: 75%
Structure (SMILES): O=C(c1ccccc1)c1cccc(C2(C(=O)O)CC2)c1 [Compound 5e, 1-(3-benzoylphenyl)cyclopropanecarboxylic acid]

inhibition at 10 µM [2, 7]: 15% | IC50 [2, 9]: 5 µM
Structure (SMILES): O=C(O)C1(c2cccc(Oc3ccccc3)c2)CC1 [Compound 5d, 1-(3-phenoxyphenol)cyclopropanecarboxylic acid]

inhibition at 10 µM [2, 7]: 6% | IC50 [2, 9]: 3.4 µM | inhibition at 10 µM [2, 8]: 77%
Structure (SMILES): COc1ccc2cc(C3(C(=O)O)CC3)ccc2c1 [Compound 5b, 1-(6-methoxynaphthalen-2-yl)cyclopropanecarboxylic acid]

inhibition at 10 µM [2, 11]: 20% | IC50 [2, 10]: 0.9 µM
Structure (SMILES): CC(C(=O)O)c1cccc(Oc2ccccc2)c1 (racemic) [Compound 6d, fenoprofen, reference compound]

inhibition at 10 µM [2, 6]: < 50% | inhibition at 10 µM [2, 7]: 10% | inhibition at 10 µM [2, 8]: 45%
Structure (SMILES): CC(C)Cc1ccc(C2(C(=O)O)CC2)cc1 [Compound 5c, 1-(4-isobutylphenyl)cyclopropanecarboxylic acid]

Second part, the compound before the results:

Structure (SMILES): Cc1ccc(Nc2c(Cl)cc(Cl)cc2Cl)c(CC(=O)O)c1 [Compound 108]
inhibition [1, 4]: 32% | inhibition [1, 5]: < 50%

Structure (SMILES): CC(C)Cc1ccc(C(C)(C)C(=O)O)cc1 [Compound 4c, 2-(4-isobutylphenyl)-2-methylpropanoic acid]
inhibition at 10 µM [2, 6]: < 50% | inhibition at 10 µM [2, 7]: 5% | inhibition at 10 µM [2, 8]: 5%

Structure (SMILES): CC(C)(C(=O)O)c1cccc(Oc2ccccc2)c1 [Compound 4d, 2-methyl-2-(3-phenoxyphenyl)propanoic acid]
inhibition at 10 µM [2, 7]: 17% | IC50 [2, 9]: 7.3 µM | inhibition at 10 µM [2, 8]: 65%

Structure (SMILES): Cc1ccc(Nc2ccccc2)c(CC(=O)O)c1 [Compound 104]
inhibition [1, 4]: 10% | inhibition [1, 5]: < 50%

Structure (SMILES): C[C@H](C(=O)O)c1cccc(Oc2ccccc2)c1 [(S)-fenoprofen, reference compound]
% Inhibition AA ([2]; chiral profens, at 10 μM inhibitor, AA 5 μM): 30% | IC50 [2, 10]: 0.9 µM

Structure (SMILES): O=C(Oc1ccc([N+](=O)[O-])cc1)N1CCC(C(O)(c2ccc3c(c2)OCO3)c2ccc3c(c2)OCO3)CC1 [JZL-184, reference compound]
Brain levels of 2-AG and 3 other MAG species [3]: increased

Structure (SMILES): O=C(O)Cc1ccccc1Nc1c(F)cccc1F [Compound 114]
inhibition ([1]; read-out: AA IC50 (mM)): < 50%

Structure (SMILES): O=C(O)Cc1ccccc1Nc1ccccc1 [Compound 112]
inhibition ([1]; read-out: AA IC50 (mM)): < 50%

Structure (SMILES): CC(C(=O)O)c1cccc(C(=O)c2ccccc2)c1 (racemic) [Compound 6e, ketoprofen, reference compound]
IC50 [2, 10]: 0.3 µM | inhibition at 10 µM ([2]; read-out: % Inhibition AA): 50%

Structure (SMILES): Cc1ccc(Nc2c(F)cccc2F)c(CC(=O)O)c1 [Compound 106]
inhibition [1, 4]: 0% | inhibition [1, 5]: < 50%

Structure (SMILES): COc1ccc2cc(C(C)(C)C(=O)O)ccc2c1 [Compound 4b, 2-(6-methoxynaphthalen-2-yl)-2-methylpropanoic acid]
inhibition at 10 µM [2, 6]: < 50% | inhibition at 10 µM [2, 7]: 7% | inhibition at 10 µM [2, 8]: 12%

Structure (SMILES): O=C(O)Cc1ccccc1Nc1c(F)cccc1Cl [Compound 109]
inhibition ([1]; read-out: AA IC50 (mM)): < 50%

Structure (SMILES): CC(C)(C(=O)O)c1cccc(C(=O)c2ccccc2)c1 [Compound 4e, 2-(3-benzoylphenyl)-2-methylpropanoic acid]
inhibition at 10 µM [2, 7]: 32% | IC50 [2, 9]: 3 µM

Structure (SMILES): O=C(O)Cc1cccc(C(=O)c2ccccc2)c1 [Compound 3e, Desmethylketoprofen]
inhibition at 10 µM [2, 7]: 10% | IC50 [2, 9]: 0.5 µM

Structure (SMILES): Cc1ccc(Nc2c(Cl)cccc2Cl)c(CC(=O)O)c1 [Compound 105]
inhibition [1, 4]: 60%

Structure (SMILES): Cc1ccc(Nc2c(F)cccc2Cl)c(CC(=O)O)c1 [Compound 101]
inhibition ([1]; read-out: AA IC50 (mM)): < 50%

Structure (SMILES): Cc1cccc(F)c1Nc1ccccc1CC(=O)O [Compound 115]
inhibition [1, 4]: 0% | inhibition [1, 5]: < 50%

Structure (SMILES): COc1ccc2cc(CC(=O)O)ccc2c1 [Compound 3b, 2-(6-methoxynaphthalen-2-yl)acetic acid]
inhibition at 10 µM [2, 7]: 16% | IC50 [2, 9]: 1.4 µM

Structure (SMILES): CC(C)Cc1ccc(CC(=O)O)cc1 [Compound 3c, 2-(4-isobutylphenyl)acetic acid]
inhibition at 10 µM [2, 7]: 14% | IC50 [2, 9]: 5.5 µM

Structure (SMILES): Cc1ccc(Nc2c(C)cccc2F)c(CC(=O)O)c1 [Compound 107]
inhibition [1, 5]: < 50%

Structure (SMILES): C[C@H](C(=O)O)c1cccc(C(=O)c2ccccc2)c1 [(S)-ketoprofen, reference compound]
IC50 [2, 10]: 0.2 µM | inhibition at 10 µM ([2]; read-out: % Inhibition AA): 55%

Structure (SMILES): C[C@@H](C(=O)O)c1cccc(C(=O)c2ccccc2)c1 [Compound 7e, (R)-ketoprofen]
IC50 [2, 10]: 7.3 µM | inhibition at 10 µM ([2]; read-out: % Inhibition AA): 20% | inhibition at 10 µM ([2]; read-out: Maximum inhibition of 2-AG oxygenation): 56%

Structure (SMILES): O=C(O)Cc1ccccc1Nc1ccccc1Cl [Compound 110]
inhibition ([1]; read-out: AA IC50 (mM)): < 50%

Structure (SMILES): O=C(O)Cc1cccc(Oc2ccccc2)c1 [Compound 3d, 2-(3-phenoxyphenyl)acetic acid]
inhibition at 10 µM [2, 7]: 24% | IC50 [2, 9]: 6.1 µM | inhibition at 10 µM [2, 8]: 68%

Structure (SMILES): Cc1ccc(Nc2ccccc2F)c(CC(=O)O)c1 [Compound 103]
inhibition [1, 4]: 0% | inhibition [1, 5]: < 50%

Structure (SMILES): Cc1ccc(Nc2ccccc2Cl)c(CC(=O)O)c1 [Compound 102]
inhibition [1, 4]: 0% | inhibition [1, 5]: < 50%

Structure (SMILES): O=C(O)Cc1ccccc1Nc1ccccc1F [Compound 111]
inhibition [1, 4]: 0% | inhibition [1, 5]: < 50%

Structure (SMILES): C[C@@H](C(=O)O)c1cccc(Oc2ccccc2)c1 [Compound 7d, (R)-Fenoprofen]
inhibition at 10 µM [2, 11]: 10% | inhibition at 10 µM ([2]; read-out: IC50 (μM) 2-AG): < 50% | inhibition at 10 µM ([2]; read-out: Maximum inhibition of 2-AG oxygenation, chiral profens, at 10 μM inhibitor, 2-AG 5 μM): 25%

Structure (SMILES): O=C(O)Cc1ccccc1Nc1c(Cl)cc(Br)cc1Cl [Compound 116]
inhibition [1, 4]: 55%
